Measured values taken from paper PMC12196476, “New Nitrogen-, Oxygen-, and Sulfur-Containing Heterocyclic Compounds as Anti-Colon Cancer Agents: Synthesis, Multitargeted Evaluations, Molecular Docking Simulations and ADMET Predictions” (Pharmaceuticals, 2025).

Tests used:
[1] = DPPH radical scavenging assay; conditions: three independent experiments; read-out: Mean IC50 (mM) for initial DPPH radicals ± SD
HCT-116 cells = assay: Mitochondrial membrane potential (TMRE staining), HCT-116; type: cell-based, human; conditions: 30 µg/mL, 48 h
Procedure: To assess mitochondrial integrity, TMRE staining was used to measure ΔΨm.
The mitochondrial transmembrane potential was measured using a tetramethylrhodamine, ethyl ester (TMRE) mitochondrial membrane potential assay kit. […]
medium served used as negative and positive controls, respectively. Percentages of viable cells […]
wells (final concentration of 100 μg/mL), compared to the negative control, and expressed as mean value (%) ± SD from two replicates. Graphing dose-response curves representing the compound […]
(HUVECs) at final concentration of 100 μg/mL . HUVECs were grown in Dulbecco’s Modified Eagle’s Medium supplemented with 10% FBS, 2 mM glutamine (Sigma Aldrich), 100 units/mL penicillin and […] streptomycin (Life Technologies; Paisley, UK).
S3.2.5. Cell cycle assay.
HCT-116 and LoVo cultures upon treatment with compound 3d. HCT-116 and LoVo carcinoma […]
μg/mL for 48 h. […] Then, cells […]
were fixed by mixing […] of 90% cold ethanol and stained with propidium iodide (PI) for 1 h at 37 °C. […]
(§1) of stained cancerous cells were determined. […]
carcinoma cells treated with compound 3d was assessed using the TMRE Mitochondrial Membrane […]
for TMRE staining. TMRE was excited using a 488 nm laser and detected in the FL2 channel at 575 […]
S3.2.9. Quantification of the Expression Levels of Bax, Bcl-2 and Caspase-3 Genes […]

LoVo cells = assay: Annexin V-FITC/PI apoptosis assay, LoVo; type: cell-based, human; conditions: 30 µg/mL, 48 h, Figure 3B plot
Procedure: Translocation of phosphatidylserine (PS) residues on the cell surface is an early apoptosis indicator, detectable through flow cytometric analysis and using double staining with propidium iodide (PI) dye and fluorescein isothiocyanate (FITC)-conjugated Annexin V (Annexin V-FITC). […]
μg/mL for 48 h. […]
S3.2.6. Annexin-V-FITC assay. […]
treatment with compound 3d. HCT-116 and LoVo cells were treated with vehicle (DMSO) and 3d […]
in Annexin-V binding buffer (BioVision Research Products, USA). The cells were then stained with Annexin V-FITC and propidium iodide (PI). Using the FITC signal detector (usually FL1) for […]
as §1

Compound: COc1cc(/C=N/c2ncnc3sc4c(c23)CCCC4)cc(OC)c1OC [Compound 3d, (E)-N-(5,6,7,8-Tetrahydrobenzo[4,5]thieno[2,3-d]pyrimidin-4-yl)-1-(3,4,5-trimethoxyphenyl)methanimine]
- IC50 [1]: 0.164 ± 0.008 mM
- Reduction of mitochondrial membrane potential (ΔΨm), HCT-116 cells (HCT-116 cells): 43.47 ± 0.81%
- Necrotic population (Annexin-V−/PI+), LoVo (LoVo cells): 4.14%
- Late apoptotic cells (both Annexin-V and PI positive), LoVo (LoVo cells; control 0.09%): 9.92%
- Early apoptotic cells (Annexin V-FITC positive and PI negative), LoVo (LoVo cells; control 0.44%): 17.12%
